System: LG0567-F671-PDC KRAS tumor spheroid viability
Experiment: Anticancer human tumor LG0567-F671-PDC patient-derived lung adenocarcinoma cell line growth inhibition [KRAS2]
Conditions: spheroids with HUVEC and MSC; for viability, T/C: stronger effect = lower value
Procedure, shortened: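 Combination screen of spheroid viability in tumor-cell co-cultures with endothelial (HUVEC) and mesenchymal stem cell stroma. Each agent was tested in half-log dilutions, topping at clinical Cmax or at 10 microM without a known Cmax.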

[1] = curve of first compound, second compound 0.1 µM
[2] = curve of first compound, second compound 0.316 µM
[3] = curve of first compound, second compound 1 µM
[4] = curve of first compound, second compound 3.16 µM
[5] = curve of first compound, second compound 10 µM
[6] = second compound 0.1 µM, first compound 0.0316 µM
[7] = second compound 0.1 µM, first compound 0.1 µM
[8] = second compound 0.1 µM, first compound 0.316 µM
[9] = second compound 0.1 µM, first compound 1 µM
[10] = second compound 0.1 µM, first compound 3.16 µM
[11] = second compound 0.1 µM, first compound 10 µM
[12] = second compound 0.316 µM, first compound 0.0316 µM
[13] = second compound 0.316 µM, first compound 0.1 µM
[14] = second compound 0.316 µM, first compound 0.316 µM
[15] = second compound 0.316 µM, first compound 1 µM
[16] = second compound 0.316 µM, first compound 3.16 µM
[17] = second compound 0.316 µM, first compound 10 µM
[18] = second compound 1 µM, first compound 0.0316 µM
[19] = second compound 1 µM, first compound 0.1 µM
[20] = second compound 1 µM, first compound 0.316 µM
[21] = second compound 1 µM, first compound 1 µM
[22] = second compound 1 µM, first compound 3.16 µM
[23] = second compound 1 µM, first compound 10 µM
[24] = second compound 3.16 µM, first compound 0.0316 µM
[25] = second compound 3.16 µM, first compound 0.1 µM
[26] = second compound 3.16 µM, first compound 0.316 µM
[27] = second compound 3.16 µM, first compound 1 µM
[28] = second compound 3.16 µM, first compound 3.16 µM
[29] = second compound 3.16 µM, first compound 10 µM
[30] = second compound 10 µM, first compound 0.0316 µM
[31] = second compound 10 µM, first compound 0.1 µM
[32] = second compound 10 µM, first compound 0.316 µM
[33] = second compound 10 µM, first compound 1 µM
[34] = second compound 10 µM, first compound 3.16 µM
[35] = second compound 10 µM, first compound 10 µM
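Further: drug exposure lasted seven days after spheroids formed for three days.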
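Wherever viability, T/C is given: 100% = DMSO vehicle control viability.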

Compound	IC50 [1] [nM]	IC50 [2] [nM]	IC50 [3] [nM]	IC50 [4] [nM]	IC50 [5] [nM]	viability, T/C [6] [%]	viability, T/C [7] [%]	viability, T/C [8] [%]	viability, T/C [9] [%]	viability, T/C [10] [%]	viability, T/C [12] [%]	viability, T/C [13] [%]	viability, T/C [14] [%]	viability, T/C [15] [%]	viability, T/C [16] [%]	viability, T/C [18] [%]	viability, T/C [19] [%]	viability, T/C [20] [%]	viability, T/C [21] [%]	viability, T/C [22] [%]	further results
COc1cc(Nc2ncc3c(n2)-c2ccc(Cl)cc2C(c2c(F)cccc2OC)=NC3)ccc1C(=O)O + C=CC(=O)N1CCN(c2nc(=O)n(-c3c(C)ccnc3C(C)C)c3nc(-c4c(O)cccc4F)c(F)cc23)C(C)C1	< 31.6	< 31.6	< 31.6	< 31.6	< 31.6	25.7	24.3	25.9	24.3	22.8	12.2	11.9	11.1	11.3	11.4	27.2	23.6	23.5	24.6	25.7	viability, T/C [11]: 21.6%; viability, T/C [17]: 9.24%; viability, T/C [23]: 21.6%; viability, T/C [24]: 23.8%; viability, T/C [25]: 20.6%; viability, T/C [26]: 20.2%; viability, T/C [27]: 22.2%; viability, T/C [28]: 21%; viability, T/C [29]: 20.6%; viability, T/C [30]: 23.3%; viability, T/C [31]: 23.5%; viability, T/C [32]: 23.8%; viability, T/C [33]: 24.4%; viability, T/C [34]: 22.5%; viability, T/C [35]: 29.5%
CC(C)NCC(C(=O)N1CCN(c2ncnc3c2C(C)CC3O)CC1)c1ccc(Cl)cc1 (configuration not stated) + CC1OCC2(CCN(c3cnc(Sc4ccnc(N)c4Cl)c(N)n3)CC2)C1N	< 31.6	< 31.6	< 31.6	< 31.6	< 31.6	48.9	38.3	29.8	31.9	33.6	37.1	30.9	21.5	20.5	18.6	26.4	22.4	14.3	11.9	10	viability, T/C [11]: 36.5%; viability, T/C [17]: 16.6%; viability, T/C [23]: 6.25%; viability, T/C [24]: 21.2%; viability, T/C [25]: 17.3%; viability, T/C [26]: 10.9%; viability, T/C [27]: 5.23%; viability, T/C [28]: 4.49%; viability, T/C [29]: 3.72%; viability, T/C [30]: 6.83%; viability, T/C [31]: 7.98%; viability, T/C [32]: 5.46%; viability, T/C [33]: 3.11%; viability, T/C [34]: 2.15%; viability, T/C [35]: 1.82%
CC1COCCN1c1cc(-c2ccnn2C)c2ccnc(-c3ccn[nH]3)c2n1 (configuration not stated) + COc1cc2nc(C)nc(NC(C)c3cc(N)cc(C(F)(F)F)c3)c2cc1OC1CCOC1	219	79.1	67.7	14.4	46.1	60.8	50.1	56.2	41.2	15.7	70.7	46.7	23.8	15.3	36.7	59.6	44.2	36.2	16.9	18.4	viability, T/C (second compound 0.1 µM, first compound 0.01 µM): 91.9%; viability, T/C (second compound 0.316 µM, first compound 0.01 µM): 84%; viability, T/C (second compound 1 µM, first compound 0.01 µM): 79.3%; viability, T/C (second compound 3.16 µM, first compound 0.01 µM): 55.5%; viability, T/C [24]: 37.9%; viability, T/C [25]: 21.8%; viability, T/C [26]: 10.1%; viability, T/C [27]: 4.98%; viability, T/C [28]: 24.5%; viability, T/C (second compound 10 µM, first compound 0.01 µM): 53.2%; viability, T/C [30]: 54.3%; viability, T/C [31]: 43.6%; viability, T/C [32]: 29.6%; viability, T/C [33]: 32.2%; viability, T/C [34]: 22.1%
Cn1ncnc1[C@H]1c2n[nH]c(=O)c3cc(F)cc(c23)N[C@@H]1c1ccc(F)cc1	–	–	–	–	–	–	–	–	–	–	–	–	–	–	–	–	–	–	–	–	viability, T/C (compound 0.000316 µM): 99.5% [middle of 5 runs]; viability, T/C (compound 0.001 µM): 106% [middle of 5 runs]; viability, T/C (compound 0.00316 µM): 101% [middle of 5 runs]; viability, T/C (compound 0.01 µM): 102% [middle of 5 runs]; viability, T/C (compound 0.0316 µM): 104% [middle of 5 runs]; viability, T/C (compound 0.1 µM): 90.9% [middle of 5 runs]; IC50 (curve of compound): > 100 nM
